Results on four molecules are retold here after PMC5699024 (Proceedings of the National Academy of Sciences of the …, 2017).

“Also recorded” adds a separate entry of the source.

Assay [1] deals with AND T cells. The assay can be described thus: ICAM-YFP distribution and T cell contact with supported membrane. Particulars: 1 h pretreatment. It is filed as cell-based, mouse.
Assay [2] concerns AND T cells. The assay is described as follows: NFAT translocation assay. Particulars: MCC/MHC:AND; unlabeled CD80 on bilayer (200 molecules per micrometer). Type of assay: cell-based, mouse.
For assay [3], the target named is T1, CD28 (Mus musculus, UniProt P31041).
T1 sequence (P31041 20-218): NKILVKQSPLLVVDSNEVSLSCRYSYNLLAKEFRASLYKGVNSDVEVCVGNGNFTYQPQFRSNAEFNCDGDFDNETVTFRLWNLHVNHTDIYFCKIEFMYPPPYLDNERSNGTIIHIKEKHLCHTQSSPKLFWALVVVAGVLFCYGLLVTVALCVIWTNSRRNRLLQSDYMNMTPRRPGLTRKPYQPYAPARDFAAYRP
The assay is described as follows: single-molecule CD80:CD28 binding in AND T cells. Particulars: 3-s time lapse, ∼10 cells, one experiment.

The target of assay [4] is CD28. Particulars: CD80:CD28 solution affinity, comparable with pMHC:TCR; ref [25], [32]–[34]; cited from earlier work.
Assay [5] concerns AND T cells. The assay can be described thus: ZAP70-EGFP recruitment and cell morphology. It is filed as cell-based, mouse. As to conditions: for ZAP70 recruitment to plasma membrane / cell morphology: T102S/MHC well below, MCC/MHC above NFAT threshold; for linear ZAP70-EGFP trajectories: ∼5-min window, TIRF.
The test system of a further assay is 5c.c7 TCR. The assay is described as follows: single-molecule pMHC:TCR dwell time in live T cells. As to conditions: almost four orders of magnitude of pMHC density. Type of assay: binding, mouse.

For the molecule `COC(=O)[C@H](CC(C)C)NC(=O)c1ccc(NC[C@@H](N)CS)cc1-c1cccc2ccccc12` [GGTI-298], in the assay on AND T cells [1], the ICAM-YFP distribution entry was “relatively even ICAM-YFP distribution across the T cell” and the “probability of T cell landing on supported membrane” value is given as “decreased the probability of the T cell’s landing on the supported membrane”.

For the molecule “CD80: decahistidine-tagged CD80 protein expressed in High Five cells; costimulatory ligand of CD28”, the “effect of CD80 on NFAT threshold density, MCC” value in the assay with AND T cells [2] is on record as “lowers the NFAT threshold density”. Further, the “CD80:CD28 〈τoff〉 versus pMHC density” value with CD28 [3] is “constant as a function of pMHC density; also recorded: constant with respect to pMHC density”. Further, on CD28 [4], the solution affinity entry is given as “low micromolar range”.

In the case of ANERADLIAYLKQASK [T102S], in the assay on AND T cells [5], the “ZAP70 recruitment to plasma membrane” value is listed as “low levels”; the cell morphology entry is listed as “asymmetric, crawling morphology”; the “linear ZAP70-EGFP trajectories” value is “asymmetric”.

Consider “ANERADLIAYLKQATK [MCC, moth cytochrome c (amino acids 88–103)]”, for which the “〈τoff〉 over pMHC density titration” value with 5c.c7 TCR was “remains constant”. In the assay on AND T cells [5], the “ZAP70 recruitment to plasma membrane” value was “enhanced ZAP70 recruitment”; the cell morphology result is listed as “stationary, centrosymmetric cell morphology”; the “linear ZAP70-EGFP trajectories” value is “centrosymmetric”.
